# From patent US8486996B2, “Aroylfuranes and aroylthiophenes” (Basilea Pharmaceutica AG, priority 2006, dated 2013)
# Where two headings read alike, the source gives them in different places.
# How the values were obtained:
# Type in all cases: cell-based
# tumor cells [1] = test: MTS proliferation assay (72 h read-out)
# Procedure: (§1) B) MTS Proliferation Assay
# (§2) The assay is performed in 96 well tissue culture plates. The cells (range: 1.5*10^3-10^4) are seeded out in 80 μl complete medium 24 h prior to compound treatment. The test compounds are added in 20 μl complete medium containing max 5% DMSO. The final compound concentrations in the assays are in the range of 0.001 μM-10 μM. The assay plates are incubated for 72 h at culture conditions. The MTS reagent is prepared according to the manufacturer's protocol (Promega G1111). 20 μl MTS reagent are added to each well; the assay plates are quickly spun and incubated for another 3 h at culture conditions. Subsequently, the plates are shortly shaked and absorption measured with a microplate-reader at 492 nm. The scores A, B, C and D are explained at the end of the Table.
# [2] = MTS proliferation assay (72 h read-out); conditions: MRC5 cells
# Procedure: as §1, §2
# tumor cells [3] = test: Hoechst 33342 nuclear staining (48 h read-out)
# Procedure: (§3) A) Hoechst 33342 Nuclear Staining
# (§4) This assay is performed in 96 well tissue culture plates. Appropriate number of cells (adherent cells: 3-5*10^3, suspension cells: 8-10*10^3) are being seeded out in 80 μl complete medium. Adherent cells are incubated for 24 h for proper spreading out before addition of test compounds while suspension cells are immediately treated with test compounds after seeding out. The test compounds are added in 20 μl complete medium containing max 5% DMSO. The final compound concentrations in the assays are in the range of 0.001 μM-10 μM. After 24 h or 48 h incubation at culture conditions, 10 μl medium containing Hoechst 33342 dye (Sigma B-2261) at 2-5 μg/ml are added to each well. The assay plates are then further incubated for 30 minutes and subsequently analyzed with a standard inverted fluorescence microscope.
# (§5) The readout allows the determination of the fraction of apoptotic nuclei as well as other morphological criteria specific for apoptosis as a function of the treatment. The scores A, B, C and D are explained at the end of the Table.
# [4] = Hoechst 33342 nuclear staining (48 h read-out)
# Procedure: as §3, §4, §5
# tumor cells [5] = test: Mitochondrial membrane potential, JC-1 (read-out 48 h); conditions: JC-1, 48 h
# Procedure: (§6) D) Mitochondrial Membrane Potential
# as §4, with “The final compound concentrations in the assays are in the range of 0.001 μM-10 μM.” left out, “JC-1 (Molecular Probes, T-3168)” for “Hoechst 33342 dye (Sigma B-2261)”, “microscope by using the FITC and TRITC filters.” for “microscope.”
# (§7) The readout allows the determination of the fraction of cells which show a dissipation of the mitochondrial membrane potential strongly indicating an apoptotic cell death as a function of the treatment. The scores A, B, C and D are explained at the end of the Table.
# [6] = as above; conditions: PBL, JC-1, 48 h
# Procedure: as §6
# as §4, with “The final compound concentrations in the assays are in the range of 0.001 μM-10 μM.” left out, “JC-1 (Molecular Probes, T-3168)” for “Hoechst 33342 dye (Sigma B-2261)”, “microscope by using the FITC and TRITC filters.” for “microscope.”
# as §7
# [7] = HT1080 cells, read-out: MTS proliferation assay IC50, HT1080
# [8] = HeLa cells, read-out: MTS proliferation assay IC50, HeLa
# [9] = Jily cells, read-out: MTS proliferation assay IC50, Jily
# [10] = Jurkat cells, read-out: MTS proliferation assay IC50, Jurkat
# [11] = HeLa cells, read-out: Hoechst 33342 nuclear staining EC50, HeLa
# [12] = Jily cells, read-out: Hoechst 33342 nuclear staining EC50, Jily
# [13] = Jurkat cells, read-out: Hoechst 33342 nuclear staining EC50, Jurkat
# [14] = MRC5 cells, read-out: Hoechst 33342 nuclear staining EC50, MRC5
# [15] = PBL, read-out: Hoechst 33342 nuclear staining EC50, PBL
# [16] = HeLa cells, read-out: Mitochondrial membrane potential (read-out 48 h) HeLa
# [17] = Jily cells, read-out: Mitochondrial membrane potential (read-out 48 h) Jily
# [18] = Jurkat cells, read-out: Mitochondrial membrane potential (read-out 48 h) Jurkat
# [19] = MCF7 cells, read-out: Mitochondrial membrane potential (read-out 48 h) MCF7
Compound,IC50 (tumor cells [1]; [7]) [nM],IC50 (tumor cells [1]; [8]) [nM],IC50 (tumor cells [1]; [9]) [nM],IC50 (tumor cells [1]; [10]) [nM],EC50 (tumor cells [3]; [11]) [nM],EC50 (tumor cells [3]; [12]) [nM],EC50 (tumor cells [3]; [13]) [nM],"EC50 [4, 15] [nM]",EC50 (tumor cells [5]; [16]) [nM],EC50 (tumor cells [5]; [17]) [nM],EC50 (tumor cells [5]; [18]) [nM],EC50 (tumor cells [5]; [19]) [nM],EC50 [6] [nM],IC50 [2] [nM],"EC50 [4, 14] [nM]"
CCOc1ccc(F)cc1C(=O)c1oc2ccc(OC)cc2c1NC(=O)OC [Example 49],10 to 100,100 to 1000,10 to 100,10 to 100,100 to 1000,10 to 100,10 to 100,> 1000,100 to 1000,10 to 100,10 to 100,> 1000,> 1000,10 to 100,> 1000
CCOc1ccccc1C(=O)c1oc2ccc(NC(=O)OC(C)(C)C)cc2c1N [Example 51],> 1000,> 1000,> 1000,–,> 1000,> 1000,> 1000,> 1000,> 1000,> 1000,> 1000,> 1000,> 1000,> 1000,> 1000
CCOc1ccc(F)cc1C(=O)c1oc2ccc(OC)cc2c1NS(C)(=O)=O [Example 54],10 to 100,10 to 100,10 to 100,–,100 to 1000,10 to 100,10 to 100,> 1000,100 to 1000,100 to 1000,10 to 100,10 to 100,> 1000,10 to 100,100 to 1000
CCOc1ccccc1C(=O)c1oc2ccccc2c1N [Example 55],100 to 1000,100 to 1000,10 to 100,10 to 100,> 1000,100 to 1000,100 to 1000,> 1000,> 1000,10 to 100,100 to 1000,100 to 1000,> 1000,100 to 1000,> 1000
CCOc1ccc(F)cc1C(=O)c1oc2ccccc2c1N [Example 56],10 to 100,10 to 100,< 10,< 10,100 to 1000,10 to 100,10 to 100,> 1000,100 to 1000,100 to 1000,10 to 100,100 to 1000,> 1000,10 to 100,> 1000
CCOc1ccc(F)cc1C(=O)c1cc2cc(COC)ccc2o1 [Example 57],10 to 100,10 to 100,< 10,< 10,10 to 100,10 to 100,10 to 100,> 1000,100 to 1000,10 to 100,10 to 100,100 to 1000,> 1000,10 to 100,100 to 1000
COc1ccc2oc(C(=O)c3ccccc3OCC(F)(F)F)c(N)c2c1 [Example 60],10 to 100,100 to 1000,10 to 100,10 to 100,100 to 1000,10 to 100,10 to 100,> 1000,100 to 1000,10 to 100,10 to 100,> 1000,> 1000,100 to 1000,> 1000
CCOc1ccc(F)cc1C(=O)c1cc2cc(OC(C)=O)ccc2o1 [Example 65],< 10,10 to 100,< 10,< 10,10 to 100,10 to 100,< 10,> 1000,10 to 100,10 to 100,< 10,> 1000,> 1000,< 10,100 to 1000
CCOc1ccc(F)cc1C(=O)c1cc2cc(OC(C)C)ccc2o1 [Example 68],10 to 100,10 to 100,10 to 100,–,100 to 1000,100 to 1000,100 to 1000,> 1000,> 1000,100 to 1000,100 to 1000,> 1000,> 1000,10 to 100,100 to 1000

# Continued, in another order:
IC50 (tumor cells [1]; [7]) [nM],IC50 (tumor cells [1]; [8]) [nM],IC50 (tumor cells [1]; [9]) [nM],IC50 (tumor cells [1]; [10]) [nM],EC50 (tumor cells [3]; [11]) [nM],EC50 (tumor cells [3]; [12]) [nM],EC50 (tumor cells [3]; [13]) [nM],"EC50 [4, 15] [nM]",EC50 (tumor cells [5]; [16]) [nM],EC50 (tumor cells [5]; [17]) [nM],EC50 (tumor cells [5]; [18]) [nM],EC50 (tumor cells [5]; [19]) [nM],EC50 [6] [nM],Compound,IC50 [2] [nM],"EC50 [4, 14] [nM]"
< 10,10 to 100,< 10,< 10,10 to 100,< 10,< 10,> 1000,10 to 100,10 to 100,10 to 100,> 1000,> 1000,CCOc1ccccc1C(=O)c1oc2ccc(OC)cc2c1N [Example 47],10 to 100,10 to 100
> 1000,> 1000,100 to 1000,100 to 1000,> 1000,100 to 1000,100 to 1000,> 1000,> 1000,> 1000,100 to 1000,> 1000,> 1000,CCOc1ccc(F)cc1C(=O)c1oc2ccc(OC)cc2c1NS(=O)(=O)N(C)C [Example 50],> 1000,> 1000
> 1000,> 1000,100 to 1000,–,> 1000,100 to 1000,100 to 1000,> 1000,> 1000,100 to 1000,100 to 1000,> 1000,> 1000,CCOc1ccccc1C(=O)c1oc2ccc(N)cc2c1N [Example 52],> 1000,> 1000
10 to 100,100 to 1000,10 to 100,10 to 100,100 to 1000,100 to 1000,10 to 100,> 1000,> 1000,100 to 1000,10 to 100,> 1000,> 1000,CCOc1ccccc1C(=O)c1oc2ccc([N+](=O)[O-])cc2c1N [Example 59],100 to 1000,> 1000
< 10,10 to 100,< 10,< 10,10 to 100,< 10,< 10,> 1000,10 to 100,< 10,< 10,> 1000,> 1000,CCOc1ccc(F)cc1C(=O)c1oc2ccc(C)cc2c1N [Example 62],< 10,> 1000
> 1000,> 1000,> 1000,> 1000,> 1000,> 1000,> 1000,> 1000,> 1000,> 1000,> 1000,> 1000,> 1000,CCOc1ccc(F)cc1C(=O)c1cc2cc(OCc3ccccc3)ccc2o1 [Example 63],> 1000,> 1000
100 to 1000,10 to 100,< 10,–,100 to 1000,10 to 100,10 to 100,> 1000,100 to 1000,10 to 100,10 to 100,> 1000,> 1000,C=CCOc1ccc2oc(C(=O)c3cc(F)ccc3OCC)cc2c1 [Example 67],10 to 100,> 1000
